# According to patent US20240109853A1 (Shanghai Yao Yuan Biotechnology Co., Ltd., priority 2020, published 2024):
# Like-named read-outs stand apart in the source and are kept apart here.
# Legend:
# hALPK1-V1092A = hALPK1-V1092A (Homo sapiens (Human), UniProt Q96QP1, V1092A); experiment: cell-based
# Procedure: Accordingly, we used IL-8 secretion as an indicator of activated ALPK1 inhibition in cells expressing these mutations.
# Transfection was performed according to manufacturer's protocols (Lipofectamine™ 3000, ThermoFisher). Transfected cells were selected, seeded onto 96-well plates and treated with serial dilutions of the test compounds for 6.5 hr. Following treatment, cell viability was determined using a luminescent cell viability assay (Cell Counting-Lite Assay or “CCL Assay” from Vazyme Biotech Co., Ltd.) and cell free supernatants were collected and analyzed for IL-8 protein by IL-8 ELISA as described above.
# Fresh medium and compound were added at 18 hours. Cell viability and IL-8 secretion were determined 6 hours after the second addition of compound, using the CCL assay and IL-8 ELISA as described above.
# [1] = tested on: ALPK1-dependent NFκB reporter gene activation in HEK293 cells stably expressing an NF-kB reporter (G9 cells); experiment: NFκB gene reporter alkaline phosphatase assay; format: cell-based; settings: read-out: NFkB assay IC50
# Method in brief: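 Read-out: chromogenic pNPP turnover by NF-kB-driven alkaline phosphatase in G9 cells (HEK293, stable reporter). Compound pre-incubation 30 min before agonist D-glycero-D-manno-6-fluoro-heptose-1β-S-ADP. IC50 by four-parameter logistic regression.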
# ALPK1 = ALPK1 (Homo sapiens (Human), UniProt Q96QP1); experiment: ALPK1 in vitro kinase assay (HTRF of TIFA phosphorylation); format: biochemical
# [2] = tested on: polymicrobial sepsis induced by cecal ligation and puncture; experiment: Sepsis induced acute kidney injury model (cecal ligation and puncture, CLP); settings: rat CLP, 20 mg/kg 2 hours prior to surgery; for kidney proinflammatory gene expression (IL6, TNFa, IL-1b, CCl2, KC): kidneys 24 hours post-surgery, Q-PCR; for survival: survival over 24 hours
# Procedure: Survival was recorded over the following 24 hours.
# 24 hours post-surgery, the kidneys were collected for gene expression analysis by Q-PCR.
# 24 hours post-surgery, plasma MCP-1 concentration was measured by ELISA.
# We used a rat CLP model to evaluate the effects of compounds described here on sepsis. Briefly, the rat cecum was ligated with sterile silk thread, and then cecum was punctured twice with a needle, gently squeezed to express a small amount of fecal material, then the abdominal incision was closed. […] In addition, at 24 hours post-surgery, the kidneys were collected for gene expression analysis by Q-PCR and plasma was collected for measurement of plasma MCP-1 concentrations by ELISA.
# [3] = tested on: innate immunity gene expression in kidney; experiment: Inhibition of activated ALPK1 in kidney: innate immunity gene expression after ALPK1 agonist; format: in vivo, Sprague-Dawley (SD) rats; settings: SD rats, 4, 10 or 25 mg/kg oral 2 hours prior to agonist ip, kidney 3 hours after agonist, RT-PCR
# Procedure: FIG. 2: Treatment groups were administered 4, 10 or 25 mg/kg of the ALPK1 inhibitor A0176 2 hours prior to the agonist, D-glycero-D-manno-6-fluoro-heptose-1β-S-ADP.
# To test the effects of the ALPK1 inhibitors on the expression of innate immunity genes activated upon ALPK1 activation, SD rats were orally administered ALPK1 inhibitors followed by activation of innate immunity genes by intraperitoneal administration of an ALPK1 agonist, D-glycero-D-manno-6-fluoro-heptose-1β-S-ADP. Kidney tissue was harvested and assayed for gene expression. Briefly, Twenty male Sprague-Dawley (SD) rats were randomly divided into five groups. The normal group was given vehicle (0.5% MC) orally. After 2 hours, PBS was given by ip injection. The control group was given vehicle (0.5% MC) orally. After 2 hours, D-glycero-D-manno-6-fluoro-heptose-1β-S-ADP (50 μpk) was given by ip injection. The other 3 groups were given the ALPK1 inhibitor A0176 (4, 10 and 25 mpk) orally. After 2 hours, D-glycero-D-manno-6-fluoro-heptose-1β-S-ADP (50 μpk) was given by ip injection. […] Quantitative PCR was conducted using AceQ qPCR SYBR Green Master Mix Kit (Vazyme, Nanjing, China) on the QuantStudio 5 applied biosystems (Thermo scientific, USA). The relative mRNA levels were calculated using the 2-ΔΔCT method, and HPRT was used as a reference for gene expression normalization. […]
# [4] = ALPK1 2 nM, TIFA substrate, ADP-Heptose activator, HTRF readout
# Chain of ALPK1 (Q96QP1 whole entry): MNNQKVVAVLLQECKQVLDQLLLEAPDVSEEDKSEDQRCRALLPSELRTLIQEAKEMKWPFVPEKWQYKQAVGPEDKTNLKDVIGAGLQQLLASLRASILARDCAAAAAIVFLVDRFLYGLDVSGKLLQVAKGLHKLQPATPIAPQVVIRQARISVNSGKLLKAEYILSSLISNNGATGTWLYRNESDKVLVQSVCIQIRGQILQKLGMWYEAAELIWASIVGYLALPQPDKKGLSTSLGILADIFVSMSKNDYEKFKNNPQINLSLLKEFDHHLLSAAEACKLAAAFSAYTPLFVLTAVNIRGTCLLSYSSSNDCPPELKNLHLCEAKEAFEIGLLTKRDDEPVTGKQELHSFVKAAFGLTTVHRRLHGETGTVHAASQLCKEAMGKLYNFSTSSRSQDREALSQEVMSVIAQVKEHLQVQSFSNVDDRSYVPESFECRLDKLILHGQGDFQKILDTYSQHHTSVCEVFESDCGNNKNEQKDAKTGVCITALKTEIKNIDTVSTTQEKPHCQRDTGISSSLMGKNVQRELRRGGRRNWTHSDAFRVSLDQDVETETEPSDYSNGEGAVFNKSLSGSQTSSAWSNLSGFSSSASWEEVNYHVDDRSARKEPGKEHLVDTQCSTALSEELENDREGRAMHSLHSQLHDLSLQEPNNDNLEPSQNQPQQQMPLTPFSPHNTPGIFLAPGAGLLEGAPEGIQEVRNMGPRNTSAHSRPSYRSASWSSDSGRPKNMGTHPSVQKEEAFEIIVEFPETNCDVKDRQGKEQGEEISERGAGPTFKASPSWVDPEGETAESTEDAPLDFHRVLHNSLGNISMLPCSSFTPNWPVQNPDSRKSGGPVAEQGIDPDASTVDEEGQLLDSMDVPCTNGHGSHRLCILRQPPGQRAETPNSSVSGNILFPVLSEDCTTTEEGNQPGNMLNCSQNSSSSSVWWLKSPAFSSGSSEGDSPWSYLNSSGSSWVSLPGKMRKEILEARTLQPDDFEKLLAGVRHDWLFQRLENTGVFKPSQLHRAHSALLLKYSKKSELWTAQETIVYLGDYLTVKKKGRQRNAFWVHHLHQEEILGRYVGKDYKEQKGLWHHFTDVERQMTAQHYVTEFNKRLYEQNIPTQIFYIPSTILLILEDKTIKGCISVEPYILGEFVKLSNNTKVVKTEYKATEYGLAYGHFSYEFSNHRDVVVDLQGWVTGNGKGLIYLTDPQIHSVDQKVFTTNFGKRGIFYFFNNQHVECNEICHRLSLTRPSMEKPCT
# Chain of hALPK1-V1092A (Q96QP1 whole entry V1092A): as the sequence (Q96QP1 whole entry) above, with V1092A counted along it
SMILES,IC50 (hALPK1-V1092A) [nM],"IC50 ([1]; Homo sapiens, HEK293) [nM]",IC50 (ALPK1) [nM],also measured
"C#C[C@@](C)(c1ccc(Cl)cc1)c1csc(NC(=O)NC(C)CO)n1 (stereo in doubt) [Example A312, 1-(4-(2-(4-chlorophenyl)but-3-yn-2-yl)thiazol-2-yl)-3-(1-hydroxypropan-2-yl)urea]",16000,2120,,
"C#C[C@@](C)(c1ccc(Cl)cc1)c1csc(NC(=O)NCCC(C)(C)O)n1 [Example A249, (S)-1-(4-(2-(4-chlorophenyl)but-3-yn-2-yl)thiazol-2-yl)-3-(3-hydroxy-3-methylbutyl)urea]",11700,670,128,
"C#C[C@@](C)(c1ccc(Cl)cc1)c1csc(NC(=O)NCCO)n1 [Example A176, (S)-1-(4-(2-(4-chlorophenyl)but-3-yn-2-yl)thiazol-2-yl)-3-(2-hydroxyethyl)urea]",1550,280,5.4,
"C#C[C@](C)(c1ccc(OC)cc1)c1csc(NC(=O)NCCS(N)(=O)=O)n1 [Example A310, 2-(3-(4-(2-(4-methoxyphenyl)but-3-yn-2-yl)thiazol-2-yl)ureido)ethanesulfona-mide]",1910,980,223,
"C#C[C@@](C)(c1ccc(OC)cc1)c1csc(NC(=O)NCCS(N)(=O)=O)n1 [Example A311, 2-(3-(4-(2-(4-methoxyphenyl)but-3-yn-2-yl)thiazol-2-yl)ureido)ethanesulfona-mide]",1160,660,95,
"C#C[C@@](C)(c1ccc(Cl)cc1)c1csc(NC(N)=O)n1 [Example A252, (S)-1-(4-(2-(4-chlorophenyl)but-3-yn-2-yl)thiazol-2-yl)urea]",723,530,30,
"C#C[C@](C)(c1ccc(Cl)cc1)c1csc(NC(=O)NCCO)n1 [Example A175, (R)-1-(4-(2-(4-chlorophenyl)but-3-yn-2-yl)thiazol-2-yl)-3-(2-hydroxyethyl)urea]",4030,1310,32,
"C#C[C@](C)(c1ccc(Cl)cc1)c1csc(NC(N)=O)n1 [Example A251, (R)-1-(4-(2-(4-chlorophenyl)but-3-yn-2-yl)thiazol-2-yl)urea]",892,1670,81,
"C#CC(C)(c1ccc(Cl)cc1)c1csc(NC(=O)N2CC(N3CCNCC3)C2)n1 (stereo not shown) [Example A261, N-(4-(2-(4-chlorophenyl)but-3-yn-2-yl)thiazol-2-yl)-3-(piperazin-1-yl)azetidine-1-carboxamide]",573,510,83,
"C#CC(C)(c1ccc(Cl)cc1)c1csc(NC(=O)NCC(O)CO)n1 (stereo not shown) [Example A244, 1-(4-(2-(4-chlorophenyl)but-3-yn-2-yl)thiazol-2-yl)-3-(2,3-dihydroxypropyl)urea]",4790,1030,72,
"C#C[C@@](C)(c1ccc(Cl)cc1)c1csc(NC(=O)NCCS(N)(=O)=O)n1 [Example A289, 2-(3-(4-(2-(4-chlorophenyl)but-3-yn-2-yl)thiazol-2-yl)ureido)ethanesulfona-mide]",439,470,54,
"C#C[C@](C)(c1ccc(Cl)cc1)c1csc(NC(=O)NC(C)CO)n1 (stereo in doubt) [Example A314, 1-(4-(2-(4-chlorophenyl)but-3-yn-2-yl)thiazol-2-yl)-3-(1-hydroxypropan-2-yl)urea]",4000,800,,
"C#C[C@@](C)(c1ccc(Cl)cc1)c1csc(NC(=O)NCC(C)O)n1 (stereo in doubt) [Example A317, 1-(4-(2-(4-chlorophenyl)but-3-yn-2-yl)thiazol-2-yl)-3-(2-hydroxypropyl)urea]",1930,970,,
"C#C[C@](C)(c1ccc(Cl)cc1)c1csc(NC(=O)NC(C)CO)n1 (stereo in doubt) [Example A315, 1-(4-(2-(4-chlorophenyl)but-3-yn-2-yl)thiazol-2-yl)-3-(1-hydroxypropan-2-yl)urea]",2770,,,IC50 [1]: 650 nM
"C#C[C@](C)(c1ccc(Cl)cc1)c1csc(NC(=O)NCC(C)O)n1 (stereo in doubt) [Example A316, 1-(4-(2-(4-chlorophenyl)but-3-yn-2-yl)thiazol-2-yl)-3-(2-hydroxypropyl)urea]",16400,1810,,
"C#C[C@@](C)(c1ccc(Cl)cc1)c1csc(NC(=O)N2CC(CN3CCNCC3)C2)n1 (stereo in doubt) [Example A292, N-(4-(2-(4-chlorophenyl)but-3-yn-2-yl)thiazol-2-yl)-3-(piperazin-1-ylmethyl)azetidine-1-carboxamide]",547,650,43,
"C#C[C@@](C)(c1ccc(Cl)cc1)c1csc(NC(=O)c2c(F)cc(N3CCNCC3)cc2F)n1 [Example C008, (S)-N-(4-(2-(4-chlorophenyl)but-3-yn-2-yl)thiazol-2-yl)-2,6-difluoro-4-(piperazin-1-yl)benzamide]",,,,"kidney proinflammatory gene expression (IL6, TNFa, IL-1b, CCl2, KC) [2]: decreased expression of kidney proinflammatory genes; survival [2]: improved the animals' survival rate"
"C#C[C@@](C)(c1ccc(Cl)cc1)c1csc(NC(=O)NCC(C)O)n1 (stereo in doubt) [Example A319, 1-(4-(2-(4-chlorophenyl)but-3-yn-2-yl)thiazol-2-yl)-3-(2-hydroxypropyl)urea]",7860,,,IC50 [1]: 670 nM
"CC#CC(C)(c1ccc(Cl)cc1)c1csc(NC(=O)c2c(F)cc(N3CCNCC3)cc2F)n1 (stereo not shown) [Example C039, N-(4-(2-(4-chlorophenyl)pent-3-yn-2-yl)thiazol-2-yl)-2,6-difluoro-4-(piperazin-1-yl)benzamide]",959,,,IC50 (ALPK1; [4]): 36 nM
C#C[C@@](C)(c1ccc(Cl)cc1)c1csc(NC(=O)N2CC(c3ccc(N4CCNCC4)c(F)c3)C2)n1 [Example A245],304,680,16,
C#C[C@@](C)(c1ccc(Cl)cc1)c1csc(NC(=O)NCCO)n1 [Example A0176],,,,"kidney gene expression of innate immunity genes (MCP-1 (CCL-2), CCL-7, CXCL-1, CXCL-10, IL-1p, IL-6 mRNA) [3]: dose-dependent inhibition of gene expression levels; kidney proinflammatory gene expression (IL6, TNFa, IL-1b, CCl2, KC) [2]: decreased expression of kidney proinflammatory genes; plasma MCP-1 concentration ([2]; plasma 24 hours post-surgery, ELISA): improved the plasma MCP-1 levels; survival [2]: improved the animals' survival rate"
"C#C[C@](C)(c1ccc(Cl)c(F)c1)c1csc(NC(=O)c2c(F)cc(N3CCNCC3)cc2F)n1 (stereo in doubt) [Example C037, N-(4-(2-(4-chloro-3-fluorophenyl)but-3-yn-2-yl)thiazol-2-yl)-2,6-difluoro-4-(piperazin-1-yl)benzamide]",8300,,,IC50 (ALPK1; [4]): 151 nM
"C#C[C@@](C)(c1ccc(Cl)cc1)c1csc(NC(=O)c2c(F)ccc(N3CCNCC3)c2F)n1 (stereo in doubt) [Example B076, N-(4-(2-(4-chlorophenyl)but-3-yn-2-yl)thiazol-2-yl)-2,6-difluoro-3-(piperazin-1-yl)benzamide]",128,,,IC50 (ALPK1; [4]): 85 nM
"C#C[C@@](C)(c1ccc(Cl)cc1)c1csc(NC(=O)NC(C)CO)n1 (stereo in doubt) [Example A313, 1-(4-(2-(4-chlorophenyl)but-3-yn-2-yl)thiazol-2-yl)-3-(1-hydroxypropan-2-yl)urea]",10200,,,IC50 [1]: 2820 nM
"C#C[C@@](C)(c1ccc(OC)cc1)c1csc(NC(=O)c2c(F)cc(N3CCNCC3)cc2F)n1 (stereo in doubt) [Example C048, 2,6-difluoro-N-(4-(2-(4-methoxyphenyl)but-3-yn-2-yl)thiazol-2-yl)-4-(piperazin-1-yl)benzamide]",5570,,,IC50 (ALPK1; [4]): 16 nM
